Laboratory results as given in US20230390268A1 (priority 2022, published 2023).
Entries after “also recorded” stand apart in the source; their conditions may differ. Like-named read-outs stand apart in the source and are kept apart here.

Experiments:
SARS-CoV-2 [1] = assay type: cell-based
IL6 = IL6 transcript levels by qPCR in SARS-CoV-2 infected Calu3 cells; assay type: cell-based, human; settings: Calu3 cells infected with SARS-CoV-2
TNFα = TNFα transcript levels by qPCR in SARS-CoV-2 infected Calu3 cells; assay type: cell-based, human; settings: Calu3 cells infected with SARS-CoV-2
IL8 = IL8 transcript levels by qPCR in SARS-CoV-2 infected Calu3 cells; assay type: cell-based, human; settings: Calu3 cells infected with SARS-CoV-2
[2] = system: Vesicular stomatitis virus (VSV); assay type: cell-based
[3] = system: Herpes Simplex Virus (HSV); assay type: cell-based
Vaccinia virus (VacV) = assay type: cell-based
HIV-1 NL4-3 GFP = assay type: cell-based
ASK1/p38MAPK = assay type: cell-based, human
THF cells = assay: Cell viability MTT assay; settings: 50 μM, 24 hr, compared with DMSO
Calu3 cells = assay type: cell-based, human; settings: 1 MOI of VSV, Selonsertib 50 μM, 24 hr
JNK = assay type: cell-based, human
mTORC1 = assay type: cell-based, human; settings: Calu3 and THF cells infected with VSV, Selonsertib 50 μM, 24 hr, versus DMSO+VSV
autophagy = assay type: cell-based, human; settings: Calu3 and THF cells infected with VSV, Selonsertib 50 μM, 24 hr
SARS-CoV-2 [4] = assay type: cell-based; remark: listed apart in the source
VSV [5] = assay type: cell-based
SARS-CoV-2 [6] = assay type: cell-based; remark: listed apart in the source
SARS-CoV-2/SB3 = system: SARS-CoV-2/SB3; parameters: species or system Syrian Hamster; settings: in vivo
VSV [7] = assay type: cell-based; remark: listed apart in the source
HSV = assay: HSV-GFP replication in CHL-11 hamster cell line; assay type: cell-based; settings: CHL-11 cells, HSV-GFP MOI of 1, 0.1 or 0.01, Selonsertib 25 or 50 μM, 24 h

| Compound | SARS-CoV-2 replication (SARS-CoV-2 [1]) | levels of IL6 (IL6) | levels of TNFα (TNFα) | levels of IL8 (IL8) | VSV replication [2] | GFP-intensity of VSV [2] | duration of effect on viral replication after aspirating drugs [2] | GFP-intensity of HSV [3] | GFP-intensity of VacV (Vaccinia virus (VacV)) | HIV-1-GFP replication (HIV-1 NL4-3 GFP) | cell viability (THF cells) | further results |
| --- | --- | --- | --- | --- | --- | --- | --- | --- | --- | --- | --- | --- |
| Cc1ccc(-n2nc(C(C)(C)C)cc2NC(=O)Nc2ccc(OCCN3CCOCC3)c3ccccc23)cc1 [BIRB, Doramapimod] | no antiviral properties | diminish | diminish | diminish | no obvious effect; also recorded: no noticeable effect | – | – | – | – | – | – | – |
| O=C(Nc1cccc(-c2nncn2C2CC2)c1)c1cc(-n2cnc(C3CC3)c2)ccn1 [GS-444217] | drastically reduces | diminish | diminish | diminish | – | significantly abolish | 24 h | significantly abolish | significantly abolish | abrogates replication | healthy and safe; also recorded: no difference | duration of effect on phosphorylation of ASK1/p38MAPK after aspirating drugs (ASK1/p38MAPK; pretreatment 24 hours, drugs aspirated prior VSV infection, Calu3 cells): 24 h |
| Cc1cc(F)c(C(=O)Nc2cccc(-c3nncn3C(C)C)n2)cc1-n1cnc(C2CC2)c1 [Selonsertib] | drastically reduces | diminish | diminish | diminish | gradually decreased | significantly abolish | 24 h | significantly abolish | significantly abolish | abrogates replication | healthy and safe; also recorded: no difference | time after adding drug at which VSV replication starts to weaken [2]: 2 h; duration of effect on phosphorylation of ASK1/p38MAPK after aspirating drugs (ASK1/p38MAPK): 24 h; time after adding drug at which p38MAPK phosphorylation starts to weaken (ASK1/p38MAPK): 2 h; changes in cell morphology caused by VSV replication (Calu3 cells): remarkably alleviates; also recorded: relieved; JNK phosphorylation (JNK): reduced; Phosphorylation levels of p70 (S6K1) (mTORC1): not changed; autophagy marker, LC3II (autophagy): not affected; SARS-CoV-2 nucleoprotein in infected HAP1 KO cells treated or not (SARS-CoV-2 [4]): no significant difference; VSV infection in HAP1 KO cells (VSV [5]): still able to swipe the leftover of VSV infection; level of SARS-CoV2 nucleocapsid (SARS-CoV-2 [6]): remarkably increased; percentage of weight loss (SARS-CoV-2/SB3; hamster): the most; IHC staining against SARS-CoV2 nucleocapsid in the hamster lung tissue (SARS-CoV-2/SB3): dominated a spatial area of the lung tissue; SARS-CoV-2 replication in hamster tissue (SARS-CoV-2/SB3): augmented; antiviral effect against VSV in hamster cell line (VSV [7]): antiviral properties; antiviral effect against HSV in hamster cell line (HSV): antiviral properties |
